Key:
[1] = system: uterine serous carcinoma (USC) or high-grade serous ovarian cancer (HGSOC); assay: Azenosertib in subjects with USC or HGSOC grouped by HRRm status: tumor response and progression free survival; assay type: in vivo, human; settings: for tumor size change, median: USC population, azenosertib 300 mg or more; for progression free survival: subjects treated with 300+mg azenosertib
Experimental: Subjects with uterine serous carcinoma (USC) or high-grade serous ovarian cancer (HGSOC) were treated with azenosertib and grouped by azenosertib dose of lower than 300 mg (LT300) or at or greater than 300 mg azenosertib (300+mg). […] Total subjects in parenthesis includes all subjects in the study including subjects receiving LT300.
Subjects selected in Table 1 were evaluated for tumor response when treated with doses of 300 mg or more of azenosertib or with lower than 300 mg of azenosertib. In the USC population treated with azenosertib of 300 mg or more (300+), HRRm positivity was associated with better tumor response (p=0.01). (FIG. 1B and FIG. 1C). The HRRm median was −33% and HRR wt median was −5%. […] HRRm subject population was associated with 8.3 months of progression free survival, compared to HRR wt subject population with 4.2 months progression free survival. (FIG. 1D). HRRm status was associated with better progression free survival in subjects treated with at least 300 mg azenosertib, supporting an effective dose of 300 mg or more in HRD subjects.

[2] = system: 22RV1 (prostate cancer cell line) subcutaneous xenografts; assay: 22RV1 subcutaneous xenograft tumor growth inhibition; assay type: in vivo, CB17 SCID mice
Experimental: The prostate cancer cell line 22RV1 harbors a BRCA2 pathogenic mutation (HRD+). Briefly, 72 tumor-bearing mice were randomized and assigned into nine groups using a randomized block design based on their tumor volumes with eight mice per group. Each mouse was inoculated subcutaneously at the right flank with 22RV1 tumor cells in 0.2 mL mixture of Matrigel (5×10^6 cells/mouse). Treatments were started when the tumor size reached 199.94 mm^3 for tumor efficacy studies (Day 14 post inoculation). [table] Tumor size was measured twice weekly in two dimensions using caliper and expressed in mm3 using the formula: where a and b were long and short diameters of the tumor. The tumor size was used for calculations of T/C %. The T/C(%) was calculated according to the following formula: Two-way ANOVA followed by Bonferroni post-test was performed to compare tumor volumes among vehicle and other groups.

[3] = azenosertib 60 mg/kg p.o. qd × 5 3 cycle
[4] = azenosertib 80 mg/kg p.o. qd × 5 3 cycle

What does the source list for C=CCn1c(=O)c2cnc(Nc3ccc(N4CCN(C)CC4)cc3)nc2n1-c1ccc2c(n1)[C@@](O)(CC)CC2 [Azenosertib, azenosertib]?
tumor size change, median ([1]; HRR wt): −5%; tumor size change, median ([1]; HRRm): −33%; progression free survival ([1]; HRR wt): 4.2 months; progression free survival ([1]; HRRm): 8.3 months; % TGI Day 5 [2, 3]: 54.08%; % TGI Day 8 [2, 3]: 32.68%; % TGI Day 12 [2, 3]: 44.02%; % TGI Day 15 [2, 3]: 26.61%; % TGI Day 19 [2, 3]: 14.55%; % TGI Day 5 [2, 4]: 38.26%; % TGI Day 8 [2, 4]: 23.80%; % TGI Day 12 [2, 4]: 26.16%; % TGI Day 15 [2, 4]: 19.47%; % TGI Day 19 [2, 4]: 38.13%

— patent US20260083742A1, “HOMOLOGOUS RECOMBINATION REPAIR DEFICIENCY (HRD) AS A PREDICTIVE BIOMARKER FOR TREATING CANCER WITH WEE1 INHIBITORS” (Zeno Management, Inc., priority 2023, published 2026)
